“And” between values parts separate entries of the source, which are not always exact repeats. Equal entries are not always repeated. Inconclusive results and toxic doses are left out.
Tested on: BDF1 mice, B16 melanoma ip, median survival T/C
Experiment: NCI In Vivo Anticancer Drug Screen. Data for tumor model B16 Melanoma (intraperitoneal) in B6D2F1 (BDF1) mice
Settings: endpoint: median survival time, higher = longer survival
Outline: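 Antitumor activity is assessed in mice bearing a transplanted tumor, with survival or tumor size compared against vehicle-dosed controls and expressed as T/C.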

Compound: COc1cccc2c1C(=O)c1c(O)c3c(c(O)c1C2=O)C[C@@](O)(C(=O)CO)C[C@@H]3OC1CC(N)C(O)C(C)O1 (some centres undefined)
- T/C (dose: 0.12 mg/kg/injection, schedule: Q01DX009 (ip), vehicle: saline): 163 % of control
- T/C (dose: 0.13 mg/kg/injection, schedule: Q01DX009 (ip), vehicle: water): 202 % of control
- T/C (dose: 0.25 mg/kg/injection, schedule: Q01DX009 (ip), vehicle: water): 181 % of control and 202 % of control and 266 % of control
- T/C (dose: 0.37 mg/kg/injection, schedule: Q01DX009 (ip), vehicle: saline): 412 % of control
- T/C (dose: 0.37 mg/kg/injection, schedule: Q03HX008 (ip), vehicle: saline): 154 % of control and 270 % of control
- T/C (dose: 0.47 mg/kg/injection, schedule: Q01DX001 (ip), vehicle: water): 175 % of control
- T/C (dose: 0.5 mg/kg/injection, schedule: Q01DX009 (ip), vehicle: water): 222 % of control and 260 % of control and 274 % of control
- T/C (dose: 0.5 mg/kg/injection, schedule: Q03HX008 (ip), vehicle: saline): 194 % of control
- T/C (dose: 0.75 mg/kg/injection, schedule: Q01DX001 (ip), vehicle: saline): 162 % of control
- T/C (dose: 0.75 mg/kg/injection, schedule: Q01DX001 (ip), vehicle: water): 154 % of control
- T/C (dose: 0.75 mg/kg/injection, schedule: Q01DX009 (ip), vehicle: saline): 154 % of control and 412 % of control
- T/C (dose: 0.75 mg/kg/injection, schedule: Q03DX001 (ip), vehicle: saline): 168 % of control
- T/C (dose: 0.75 mg/kg/injection, schedule: Q03HX008 (ip), vehicle: saline): 164 % of control and 412 % of control
- T/C (dose: 0.75 mg/kg/injection, schedule: Q04DX003 (ip), vehicle: saline): 210 % of control
- T/C (dose: 0.94 mg/kg/injection, schedule: Q01DX001 (ip), vehicle: water): 194 % of control and 197 % of control
- T/C (dose: 1.0 mg/kg/injection, schedule: Q01DX009 (ip), vehicle: water): 260 % of control and 274 % of control and 339 % of control
- T/C (dose: 1.0 mg/kg/injection, schedule: Q03HX008 (ip), vehicle: saline): 169 % of control
- T/C (dose: 1.25 mg/kg/injection, schedule: Q01DX001 (ip), vehicle: saline): 210 % of control
- T/C (dose: 1.4 mg/kg/injection, schedule: Q04DX003 (ip), vehicle: saline): 102 % of control
- T/C (dose: 1.44 mg/kg/injection, schedule: Q04DX003 (ip), vehicle: water): 158 % of control and 295 % of control
- T/C (dose: 1.5 mg/kg/injection, schedule: Q01DX001 (ip), vehicle: saline): 100 % of control and 114 % of control
- T/C (dose: 1.5 mg/kg/injection, schedule: Q01DX009 (ip), vehicle: saline): 164 % of control and 412 % of control
- T/C (dose: 1.5 mg/kg/injection, schedule: Q03DX001 (ip), vehicle: saline): 412 % of control
- T/C (dose: 1.5 mg/kg/injection, schedule: Q03HX008 (ip), vehicle: saline): 206 % of control
- T/C (dose: 1.5 mg/kg/injection, schedule: Q04DX003 (ip), vehicle: saline): 152 % of control and 412 % of control
- T/C (dose: 1.88 mg/kg/injection, schedule: Q01DX001 (ip), vehicle: water): 241 % of control and 308 % of control
- T/C (dose: 1.9 mg/kg/injection, schedule: Q01DX001 (ip), vehicle: water): 165 % of control
- T/C (dose: 2.0 mg/kg/injection, schedule: Q01DX009 (ip), vehicle: water): 219 % of control and 275 % of control
- T/C (dose: 2.0 mg/kg/injection, schedule: Q03HX008 (ip), vehicle: saline): 152 % of control
- T/C (dose: 2.4 mg/kg/injection, schedule: Q04DX003 (ip), vehicle: saline): 105 % of control
- T/C (dose: 2.4 mg/kg/injection, schedule: Q04DX003 (ip), vehicle: water): 155 % of control and 233 % of control
- T/C (dose: 3.0 mg/kg/injection, schedule: Q03DX001 (ip), vehicle: saline): 177 % of control
- T/C (dose: 3.0 mg/kg/injection, schedule: Q04DX003 (ip), vehicle: saline): 162 % of control and 412 % of control
- T/C (dose: 3.75 mg/kg/injection, schedule: Q01DX001 (ip), vehicle: water): 214 % of control and 308 % of control
- T/C (dose: 3.8 mg/kg/injection, schedule: Q01DX001 (ip), vehicle: water): 111 % of control
- T/C (dose: 4.0 mg/kg/injection, schedule: Q04DX003 (ip), vehicle: water): 184 % of control and 202 % of control
- T/C (dose: 5.9 mg/kg/injection, schedule: Q04DX003 (ip), vehicle: saline): 428 % of control
- T/C (dose: 6.0 mg/kg/injection, schedule: Q01DX001 (ip), vehicle: saline): 308 % of control
- T/C (dose: 6.0 mg/kg/injection, schedule: Q03DX001 (ip), vehicle: saline): 264 % of control
- T/C (dose: 6.0 mg/kg/injection, schedule: Q04DX003 (ip), vehicle: saline): 189 % of control
- T/C (dose: 6.67 mg/kg/injection, schedule: Q04DX003 (ip), vehicle: saline): 118 % of control
- T/C (dose: 6.67 mg/kg/injection, schedule: Q04DX003 (ip), vehicle: water): 198 % of control and 321 % of control
- T/C (dose: 8.0 mg/kg/injection, schedule: Q04DX003 (ip), vehicle: saline): 165 % of control and 180 % of control
- T/C (dose: 9.0 mg/kg/injection, schedule: Q04DX003 (ip), vehicle: saline): 103 % of control
- T/C (dose: 12.0 mg/kg/injection, schedule: Q03DX001 (ip), vehicle: saline): 100 % of control
- T/C (dose: 13.3 mg/kg/injection, schedule: Q01DX001 (ip), vehicle: saline): 150 % of control and 155 % of control
- T/C (dose: 32.0 mg/kg/injection, schedule: Q01DX001 (ip), vehicle: saline): 40 % of control
- T/C (dose: 32.0 mg/kg/injection, schedule: Q01DX001 (ip), vehicle: water): 116 % of control
- T/C (dose: 64.0 mg/kg/injection, schedule: Q01DX001 (ip), vehicle: saline): 25 % of control
- T/C (dose: 128.0 mg/kg/injection, schedule: Q01DX001 (ip), vehicle: saline): 20 % of control
- T/C (dose: 125.0 micrograms/kg/injection, schedule: Q01DX009 (ip), vehicle: other): 178 % of control
- T/C (dose: 250.0 micrograms/kg/injection, schedule: Q01DX009 (ip), vehicle: other): 246 % of control
- T/C (dose: 500.0 micrograms/kg/injection, schedule: Q01DX009 (ip), vehicle: other): 379 % of control
- T/C (dose: 518.0 micrograms/kg/injection, schedule: Q01DX004 (ip), vehicle: other): 112 % of control
- T/C (dose: 864.0 micrograms/kg/injection, schedule: Q01DX004 (ip), vehicle: other): 122 % of control
- T/C (dose: 1000.0 micrograms/kg/injection, schedule: Q01DX009 (ip), vehicle: other): 380 % of control
- T/C (dose: 2000.0 micrograms/kg/injection, schedule: Q01DX009 (ip), vehicle: other): 382 % of control
- T/C (dose: 4000.0 micrograms/kg/injection, schedule: Q01DX004 (ip), vehicle: other): 100 % of control and 112 % of control

Compound: COc1cc2c(c(O)c1OC)-c1c(cc(OC)c(OC)c1OC)CC(C)C(C)C2 (centres undefined)
- T/C (dose: 11.25 mg/kg/injection, schedule: Q01DX009 (ip), vehicle: saline + Tween-80 + alcohol): 101 % of control
- T/C (dose: 22.5 mg/kg/injection, schedule: Q01DX009 (ip), vehicle: saline + Tween-80 + alcohol): 105 % of control
- T/C (dose: 45.0 mg/kg/injection, schedule: Q01DX009 (ip), vehicle: saline + Tween-80 + alcohol): 97 % of control
- T/C (dose: 90.0 mg/kg/injection, schedule: Q01DX009 (ip), vehicle: saline + Tween-80 + alcohol): 106 % of control

Compound: CC(=O)NC1=C(N2CC2)C(=O)C(NC(C)=O)=C(N2CC2)C1=O
- T/C (dose: 0.12 mg/kg/injection, schedule: Q01DX009 (ip), vehicle: saline with Tween-80): 106 % of control and 112 % of control
- T/C (dose: 0.25 mg/kg/injection, schedule: Q01DX005 (ip), vehicle: saline with Tween-80): 103 % of control and 109 % of control
- T/C (dose: 0.25 mg/kg/injection, schedule: Q01DX009 (ip), vehicle: saline with Tween-80): 107 % of control and 112 % of control
- T/C (dose: 0.5 mg/kg/injection, schedule: Q01DX005 (ip), vehicle: saline with Tween-80): 107 % of control
- T/C (dose: 0.5 mg/kg/injection, schedule: Q01DX009 (ip), vehicle: saline with Tween-80): 124 % of control
- T/C (dose: 1.0 mg/kg/injection, schedule: Q01DX005 (ip), vehicle: saline with Tween-80): 116 % of control and 121 % of control
- T/C (dose: 2.0 mg/kg/injection, schedule: Q01DX009 (ip), vehicle: saline with Tween-80): 157 % of control
- T/C (dose: 7.0 micrograms/kg/injection, schedule: Q01DX009 (ip), vehicle: saline): 102 % of control
- T/C (dose: 15.0 micrograms/kg/injection, schedule: Q01DX009 (ip), vehicle: saline): 95 % of control
- T/C (dose: 31.0 micrograms/kg/injection, schedule: Q01DX009 (ip), vehicle: saline): 92 % of control
- T/C (dose: 62.0 micrograms/kg/injection, schedule: Q01DX009 (ip), vehicle: saline): 116 % of control
- T/C (dose: 125.0 micrograms/kg/injection, schedule: Q01DX009 (ip), vehicle: saline): 95 % of control
